# From ChEMBL document CHEMBL1144261, “Synthesis of alkyne derivatives of a novel triazolopyrazine as A(2A) adenosine receptor antagonists” (Bioorg Med Chem Lett, 2005)
# How the values were obtained:
# Adenosine receptor A1 = target: T1, Adenosine receptor A1 (Rattus norvegicus, UniProt P25099); experiment: Binding affinity towards Adenosine A1 receptor of rat cerebral cortex using [3H]-DPCPX as radioligand
# T1 sequence (P25099 whole entry): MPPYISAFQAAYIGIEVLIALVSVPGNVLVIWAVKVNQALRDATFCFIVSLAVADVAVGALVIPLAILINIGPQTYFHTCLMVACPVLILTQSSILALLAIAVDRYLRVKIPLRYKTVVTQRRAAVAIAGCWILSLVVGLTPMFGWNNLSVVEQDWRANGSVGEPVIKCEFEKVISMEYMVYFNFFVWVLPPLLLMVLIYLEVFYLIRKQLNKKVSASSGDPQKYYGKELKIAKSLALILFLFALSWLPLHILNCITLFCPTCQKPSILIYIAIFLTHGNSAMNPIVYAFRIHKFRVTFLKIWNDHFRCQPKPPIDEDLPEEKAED
# Adenosine receptor A2a = Adenosine receptor A2a (Rattus norvegicus, UniProt P30543); experiment: Binding affinity towards Adenosine A2A receptor of rat brain tissues using [3H]ZM-241385 as radioligand
# Chain of Adenosine receptor A2a (P30543 whole entry): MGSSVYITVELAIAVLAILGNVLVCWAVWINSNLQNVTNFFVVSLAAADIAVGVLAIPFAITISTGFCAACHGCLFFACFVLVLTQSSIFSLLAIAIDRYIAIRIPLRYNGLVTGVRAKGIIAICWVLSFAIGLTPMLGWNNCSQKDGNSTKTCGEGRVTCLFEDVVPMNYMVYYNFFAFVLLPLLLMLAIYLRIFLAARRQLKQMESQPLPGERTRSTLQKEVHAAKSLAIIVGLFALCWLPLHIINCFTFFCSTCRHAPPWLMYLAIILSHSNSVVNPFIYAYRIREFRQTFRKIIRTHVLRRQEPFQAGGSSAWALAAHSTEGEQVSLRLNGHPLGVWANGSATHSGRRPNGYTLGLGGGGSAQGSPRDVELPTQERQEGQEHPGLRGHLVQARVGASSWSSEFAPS
Structure (SMILES),Ki (Adenosine receptor A1),Ki (Adenosine receptor A2a)
Nc1nc(C#CCC2CCCCC2)cn2nc(-c3ccco3)nc12,680 nM,280 nM
Nc1nc(C#CC(O)c2ccccc2)cn2nc(-c3ccco3)nc12 (centres undefined),2400 nM,340 nM
CC(O)(C#Cc1cn2nc(-c3ccco3)nc2c(N)n1)c1ccccc1 (centres undefined),41 nM,12 nM
Nc1nc(C#CC(O)C2(O)CCC2)cn2nc(-c3ccco3)nc12 (centres undefined),2.5 nM,12 nM
Nc1nc(C#CCOc2ccc(F)c(Cl)c2)cn2nc(-c3ccco3)nc12,4300 nM,310 nM
CN(C)c1ccc(C(O)(C#Cc2cn3nc(-c4ccco4)nc3c(N)n2)C(F)(F)F)cc1 (centres undefined),,1100 nM
CC(O)(C#Cc1cn2nc(-c3ccco3)nc2c(N)n1)Cc1ccncc1 (centres undefined),100 nM,1.1 nM
Nc1nc(C#Cc2ccc(F)cc2F)cn2nc(-c3ccco3)nc12,,> 1000 nM
Nc1nc(C#CCO)cn2nc(-c3ccco3)nc12,> 500 nM,> 500 nM
CC(O)(C#Cc1cn2nc(-c3ccco3)nc2c(N)n1)c1cccc(C(F)(F)F)c1F (centres undefined),,1600 nM
Nc1nc(C#CCOc2ccccc2)cn2nc(-c3ccco3)nc12,530 nM,390 nM
Nc1nc(C#CC(O)c2csc3ccccc23)cn2nc(-c3ccco3)nc12 (centres undefined),73 nM,260 nM

# The remaining compounds from weak to strong by Ki (Adenosine receptor A2a), led by results:
Ki (Adenosine receptor A1),Ki (Adenosine receptor A2a),Structure (SMILES)
35 nM,210 nM,Nc1nc(C#CC2(N)CCCCC2)cn2nc(-c3ccco3)nc12
110 nM,92 nM,Nc1nc(C#CCOc2cccnc2)cn2nc(-c3ccco3)nc12
1800 nM,89 nM,Cn1nc(OCC#Cc2cn3nc(-c4ccco4)nc3c(N)n2)cc1C(F)(F)F
2200 nM,74 nM,Nc1nc(C#CC(O)(c2ccccc2)C(F)(F)F)cn2nc(-c3ccco3)nc12 (centres undefined)
66 nM,42 nM,CC(O)(C#Cc1cn2nc(-c3ccco3)nc2c(N)n1)c1ccc(O)cc1 (centres undefined)
96 nM,37 nM,CC(C#Cc1cn2nc(-c3ccco3)nc2c(N)n1)OC(C)(C)C (centres undefined)
340 nM,33 nM,CC(O)(C#Cc1cn2nc(-c3ccco3)nc2c(N)n1)c1csc2ccccc12 (centres undefined)
110 nM,33 nM,CC(O)(C#Cc1cn2nc(-c3ccco3)nc2c(N)n1)c1ccc([N+]2=CC=NC2)cc1 (centres undefined)
72 nM,30 nM,Nc1nc(C#CC(O)C2(O)CCCC2)cn2nc(-c3ccco3)nc12 (centres undefined)
170 nM,25 nM,CC(O)(C#Cc1cn2nc(-c3ccco3)nc2c(N)n1)c1ccncc1 (centres undefined)
33 nM,9 nM,CCC(O)(C#Cc1cn2nc(-c3ccco3)nc2c(N)n1)CC
11 nM,7.3 nM,Nc1nc(C#CC(O)C2(O)CCCCC2)cn2nc(-c3ccco3)nc12 (centres undefined)
8 nM,7 nM,CC(C)C(O)(C#Cc1cn2nc(-c3ccco3)nc2c(N)n1)C(C)C
24 nM,3.7 nM,CC(C)CCC(C)(O)C#Cc1cn2nc(-c3ccco3)nc2c(N)n1 (centres undefined)
